Legend:
[1] = biological target: FPR1 (Homo sapiens (Human), UniProt P21462); assay: Agonistic activity (calcium FLIPR) in hFPR1-Gα15-CHO cells; assay type: cell-based; conditions: FLIPR Calcium 5 dye fluorescence, agonistic response
Method: (§1) Cells (hFPR1-Gα15-CHO or hFPR2-Aq-CHO) are suspended in 10 mL of respective complete medium (F12(1×) HAM media; 10% HI-FBS; 0.1 mg/ml Hygromycin B and 0.2 mg/ml Zeocin [for hFPR1 only]; 0.4 mg/mL Geneticin and 0.25 mg/ml Zeocin [for hFPR2-Aq only]) and viability is checked using Trypan Blue exclusion. After washing, the cells are plated at 10,000 cells per well in 40 μL complete medium in a 384-well sterile clear bottom black plate and incubated in a 5% CO2 incubator at 37° C. for 18 hours. Plating media is removed from each well by decanting and gentle tapping before 30 μL of 0.5× Calcium 5 dye solution (0.5×FLIPR Calcium 5 dye (Molecular devices, R8186)); HBSS; 20 mM HEPES; 2.5 mM Probenecid; 0.025% Pluronic F-127; pH adjusted to 7.4) is added to each well and the plate is then incubated at 37° C. for 30 minutes. For the assay the plate is equilibrated at room temperature for 10 minutes before placing it in the FLIPR. Compounds are dissolved in DMSO and serially diluted over an 11 point half log (3.16 fold) dilution (2 mM to 20 nM). Compounds are then diluted 1:50 in assay buffer (HBSS; 20 mM HEPES; 2.5 mM Probenecid; 0.05% gelatin; 0.1% BSA; pH adjusted to 7.4) just before performing the assay. Compounds are finally added to the respective wells of the cell plate (final assay concentration 10 μM to 100 pM) using the FLIPR (e.g. FLIPR-Tetra, Molecular Devices) and fluorescence readings are captured for 5 minutes. The increase in fluorescence from the basal reading in the presence of the compounds is compared with that of the control wells (wells having no compound) to calculate the activity of the compounds. The EC50 values of the compounds can be determined using e.g. Graph pad Prism software.
(§2) Assay Method for Measuring Agonistic Activity of Compounds in hFPR1-Gα15-CHO and hFPR2-Aq-CHO Cell
(§3) Cryo-vial containing 6×10^6 cells (hFPR1-Gα15-CHO or hFPR2-Aq-CHO) was thawed in a 37° C. water bath. Cells were suspended in 10 ml of respective complete growth media (F12(1×) HAM media (Gibco; Cat#11765); 10% HI-FBS (Gibco; Cat#10082); 0.1 mg/ml Hygromycin B (Invitrogen; Cat#10687-010) [for hFPR1 only]; 0.2 mg/ml Zeocin (Invitrogen; Cat#R25001) [for hFPR1 only]; 0.4 mg/ml Geneticin (Gibco; Cat#10131) [for hFPR2-Aq only]; 0.25 mg/ml Zeocin (Invitrogen; Cat#R25001) [for hFPR2-Aq only]) in a 15 ml centrifuge tube. The cell viability was checked with the help of Trypan Blue dye. Upon washing the cells, those were plated in a 384-well sterile clear bottom black plate (Greiner Bioone Cat#781091) so that, each well contained 10,000 cells in 40 μl complete growth media. The plate was incubated in a 5% CO2 incubator at 37° C. for 18 hours.
(§4) Before assay on the next day, the cell plating media was removed from each well of the plate by decanting and gentle tapping. 30 μl, 0.11 of 0.5× Calcium 5 dye solution (0.5×FLIPR Calcium 5 dye (Molecular devices Cat# R8186); HBSS (Invitrogen; Cat#14025); 20 mM HEPES (Sigma; Cat#H0887); 2.5 mM Probenecid (Sigma; Cat#P8761); 0.025% Pluronic F-127 (Sigma; Cat#P2443); pH adjusted to 7.4) was added to each well. The plate was then incubated at 37° C. for 30 minutes. Following which the plate was equilibrated at room temperature for 10 minutes before placing it in a 384 well FLIPR for assay. Compounds were dissolved in DMSO and serially diluted following 11 point half log (3.16 fold) dilution with a starting concentration of 2 mM (Final assay concentration 10 μM). Aliquots of above mentioned each dilution was mixed with assay buffer (HBSS (Invitrogen; Cat#14025); 20 mM HEPES (Sigma; Cat#H0887); 2.5 mM Probenecid (Sigma; Cat#P8761); 0.05% gelatin (Sigma; Cat#G1890); 0.1% BSA (Sigma; Cat#A3059); pH adjusted to 7.4) just before performing the assay. Compounds were added to the respective wells of the assay ready cell plate with the help of the FLIPR (FLIPR Tetra) and fluorescence readings were captured for 5 minutes to measure any agonistic response of the compounds. […]

[2] = biological target: FPR2 (Homo sapiens (Human), UniProt P25090); assay: Agonistic activity (calcium FLIPR) in hFPR2-Aq-CHO cells; assay type: cell-based; conditions: FLIPR Calcium 5 dye fluorescence, agonistic response
Sequence of FPR2 (P25090 whole entry): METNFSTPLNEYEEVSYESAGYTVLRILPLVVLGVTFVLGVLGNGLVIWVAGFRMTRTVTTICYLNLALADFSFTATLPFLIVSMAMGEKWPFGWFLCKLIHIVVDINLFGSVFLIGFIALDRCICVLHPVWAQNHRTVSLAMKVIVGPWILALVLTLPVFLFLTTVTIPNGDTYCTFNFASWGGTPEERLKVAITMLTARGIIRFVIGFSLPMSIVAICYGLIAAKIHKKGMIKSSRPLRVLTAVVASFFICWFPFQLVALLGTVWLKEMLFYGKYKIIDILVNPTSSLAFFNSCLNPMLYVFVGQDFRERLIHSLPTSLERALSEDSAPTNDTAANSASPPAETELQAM
Method: as §1, §2, §3, §4

Sequence of FPR1 (P21462 whole entry): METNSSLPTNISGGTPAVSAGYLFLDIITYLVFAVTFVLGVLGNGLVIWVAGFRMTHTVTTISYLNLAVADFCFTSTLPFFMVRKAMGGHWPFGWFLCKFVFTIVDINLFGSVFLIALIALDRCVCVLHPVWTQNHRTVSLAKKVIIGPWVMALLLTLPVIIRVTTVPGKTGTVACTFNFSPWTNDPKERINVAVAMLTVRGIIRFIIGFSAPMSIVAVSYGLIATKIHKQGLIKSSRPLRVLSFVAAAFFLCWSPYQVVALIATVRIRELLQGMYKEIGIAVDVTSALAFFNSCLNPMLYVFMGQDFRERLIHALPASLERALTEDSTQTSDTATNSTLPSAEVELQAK

| EC50 [1] [nM] | EC50 [2] [nM] | SMILES |
| --- | --- | --- |
| 1 to 1000 | 1 to 1000 | O=C1CC(c2ccc(Cl)cc2)C(NC(=O)Nc2ccc(Cl)cc2)CN1 (single isomer, unassigned; ent1) [Example 91, trans-ent1-1-(4-chlorophenyl)-3-(4-(4-chlorophenyl)-6-oxopiperidin-3-yl)urea] |
| 1 to 1000 | < 1 | COc1ccc([C@@H]2CC(=O)NC[C@H]2NC(=O)Nc2ccc(Cl)cc2)cc1 (racemic) [Example 1, rac-trans-1-(4-chlorophenyl)-3-(4-(4-methoxyphenyl)-6-oxopiperidin-3-yl)urea] |
| 1 to 1000 | < 1 | COc1cc(F)c([C@@H]2CCN(C(C)=O)C[C@H]2NC(=O)Nc2ccc(Cl)cc2)c(F)c1 (racemic) [Example 5, rac-trans-1-(1-acetyl-4-(2,6-difluoro-4-methoxyphenyl)piperidin-3-yl)-3-(4-chlorophenyl)urea] |
| 1 to 1000 | 1 to 1000 | O=C1C[C@@H](c2ccc(OC(F)F)cc2)[C@H](NC(=O)Nc2ccc(Cl)cc2)CN1 (racemic) [Example 74, rac-trans-1-(4-chlorophenyl)-3-(4-(4-(difluoromethoxy)phenyl)-6-oxopiperidin-3-yl)urea] |
| < 1 | < 1 | COc1ccc([C@@H]2CCN(C(=O)C(C)(F)F)C[C@H]2NC(=O)Nc2ccc(Cl)cc2)cc1 (racemic) [Example 14, rac-trans-1-(4-chlorophenyl)-3-(1-(2,2-difluoropropanoyl)-4-(4-methoxyphenyl)piperidin-3-yl)urea] |
| 1 to 1000 | 1 to 1000 | COc1ccc([C@@H]2CCN(C(C)=O)C[C@H]2NC(=O)Nc2ccc(Cl)nc2)cc1 (racemic) [Example 19, rac-trans-1-(1-acetyl-4-(4-methoxyphenyl)piperidin-3-yl)-3-(6-chloropyridin-3-yl)urea] |
| 1 to 1000 | 1 to 1000 | O=C(Nc1ccc(Cl)cc1)NC1CNCCC1c1ccccc1 (single isomer, unassigned; ent2) [Example 81, trans-ent2-1-(4-chlorophenyl)-3-(4-phenylpiperidin-3-yl)urea] |
| 1 to 1000 | 1 to 1000 | COc1ccc(C2CCNCC2NC(=O)Nc2ccc(Cl)cc2)c(F)c1 (single isomer, unassigned; ent2) [Example 46, ent2-1-(4-chlorophenyl)-3-(4-(2-fluoro-4-methoxyphenyl)piperidin-3-yl)urea] |
| 1 to 1000 | < 1 | COc1cc(F)c(C2CC(=O)NCC2NC(=O)Nc2ccc(Cl)cc2)c(F)c1 (single isomer, unassigned; ent2) [Example 50, trans-ent2-1-(4-chlorophenyl)-3-(4-(2,6-difluoro-4-methoxyphenyl)-6-oxopiperidin-3-yl)urea] |
| 1 to 1000 | < 1 | COCCN1CC(NC(=O)Nc2ccc(Cl)cc2)C(c2ccc(OC)cc2F)CC1=O (single isomer, unassigned; ent1) [Example 59, trans-ent1-1-(4-Chlorophenyl)-3-[4-(2-fluoro-4-methoxy-phenyl)-1-(2-methoxy-ethyl)-6-oxo-piperidin-3-yl]-urea] |
| 1 to 1000 | 1 to 1000 | COc1cc(F)c(C2CCN(C(=O)C3CC3)CC2NC(=O)Nc2ccc(Cl)cc2)c(F)c1 (single isomer, unassigned; ent2) [Example 40, trans-ent2-1-(4-chlorophenyl)-3-(1-(cyclopropanecarbonyl)-4-(2,6-difluoro-4-methoxyphenyl)piperidin-3-yl)urea] |
| 1 to 1000 | 1 to 1000 | O=C(Nc1ccc(Cl)cc1)NC1CN(CC(F)F)C(=O)CC1c1ccc(F)cc1F (single isomer, unassigned; ent2) [Example 66, trans-ent2-1-(4-Chlorophenyl)-3-[1-(2,2-difluoro-ethyl)-4-(2,4-difluoro-phenyl)-6-oxo-piperidin-3-yl]-urea] |
| 1 to 1000 | < 1 | COc1ccc(C2CC(=O)NCC2NC(=O)Nc2ccc(Cl)cc2)c(F)c1 (single isomer, unassigned; ent1) [Example 42, trans-ent1-1-(4-chlorophenyl)-3-(4-(2-fluoro-4-methoxyphenyl)-6-oxopiperidin-3-yl)urea] |
| 1 to 1000 | < 1 | COc1ccc([C@@H]2CC(=O)NC[C@H]2NC(=O)Nc2ccc(Br)cc2)cc1 (racemic) [Example 3, rac-trans-1-(4-bromophenyl)-3-(4-(4-methoxyphenyl)-6-oxopiperidin-3-yl)urea] |
| 1 to 1000 | 1 to 1000 | COc1cc(F)c([C@@H]2CC(=O)NC[C@H]2NC(=O)Nc2cc(C)ns2)c(F)c1 (racemic) [Example 55, rac-trans-1-[4-(2,6-Difluoro-4-methoxy-phenyl)-6-oxo-piperidin-3-yl]-3-(3-methyl-isothiazol-5-yl)-urea] |
| < 1 | < 1 | COc1ccc([C@@H]2CC(=O)N(C)C[C@H]2NC(=O)Nc2ccc(Cl)cc2)cc1 (stereo in doubt) [Example 7, rac-trans-1-(4-chlorophenyl)-3-(4-(4-methoxyphenyl)-1-methyl-6-oxopiperidin-3-yl)urea] |
| 1 to 1000 | < 1 | COc1cc(F)c([C@@H]2CC(=O)NC[C@H]2NC(=O)Nc2ccc(Cl)cc2)c(F)c1 (racemic) [Example 23, rac-trans-1-(4-chlorophenyl)-3-(4-(2,6-difluoro-4-methoxyphenyl)-6-oxopiperidin-3-yl)urea] |
| < 1 | < 1 | COC(=O)CN1C[C@@H](NC(=O)Nc2ccc(Cl)cc2)[C@H](c2ccc(OC)cc2)CC1=O (racemic) [Example 21, rac-trans-methyl 2-(5-(3-(4-chlorophenyl)ureido)-4-(4-methoxyphenyl)-2-oxopiperidin-1-yl)acetate] |
| 1 to 1000 | 1 to 1000 | O=C(Nc1ccc(Cl)cc1)NC1CN(CC(F)F)C(=O)CC1c1ccc(F)cc1F (single isomer, unassigned; ent1) [Example 65, trans-ent1-1-(4-Chlorophenyl)-3-[1-(2,2-difluoro-ethyl)-4-(2,4-difluoro-phenyl)-6-oxo-piperidin-3-yl]-urea] |
| 1 to 1000 | 1 to 1000 | CS(=O)(=O)c1ccc([C@@H]2CC(=O)NC[C@H]2NC(=O)Nc2ccc(Cl)cc2)cc1 (racemic) [Example 75, rac-trans-1-(4-chlorophenyl)-3-(4-(4-(methylsulfonyl)phenyl)-6-oxopiperidin-3-yl)urea] |
| 1 to 1000 | < 1 | COc1ccc([C@@H]2CCNC[C@H]2NC(=O)Nc2ccc(Cl)cc2)cc1 (racemic) [Example 4, rac-trans-1-(4-chlorophenyl)-3-(4-(4-methoxyphenyl)piperidin-3-yl)urea] |

| SMILES | EC50 [1] [nM] | EC50 [2] [nM] |
| --- | --- | --- |
| COc1ccc([C@@H]2CCN(C(C)=O)C[C@H]2NC(=O)Nc2ccc(C)nc2)cc1 (racemic) [Example 26, rac-trans-1-(1-acetyl-4-(4-methoxyphenyl)piperidin-3-yl)-3-(6-methylpyridin-3-yl)urea] | 1 to 1000 | 1 to 1000 |

Reference: patent US10265310B2, “6-membered cyclic amines or lactames substituted with urea and phenyl” (GRÜNENTHAL GMBH, priority 2016, dated 2019)
